Data from patent US20090326014A1, “Use of 5-ht7 receptor agonists for the treatment of pain” (Laboratorios Del Dr. Esteve, S.A., priority 2006, published 2009).
Several values for one entry are separate records, joined by “and”; a condition that tells them apart may be missing. Equal entries are not always repeated. Entries after “also recorded” stand apart in the source; their conditions may differ. Where two headings read alike, the source gives them in different places. Blank lines part the entries; values can stand above or below the compound they belong to.

Assays:
[1] = molecular target: T1, h5-HT1A (Homo sapiens, UniProt P08908); experiment: Radioligand binding assay, h5-HT1A
T1 sequence (P08908 1-422): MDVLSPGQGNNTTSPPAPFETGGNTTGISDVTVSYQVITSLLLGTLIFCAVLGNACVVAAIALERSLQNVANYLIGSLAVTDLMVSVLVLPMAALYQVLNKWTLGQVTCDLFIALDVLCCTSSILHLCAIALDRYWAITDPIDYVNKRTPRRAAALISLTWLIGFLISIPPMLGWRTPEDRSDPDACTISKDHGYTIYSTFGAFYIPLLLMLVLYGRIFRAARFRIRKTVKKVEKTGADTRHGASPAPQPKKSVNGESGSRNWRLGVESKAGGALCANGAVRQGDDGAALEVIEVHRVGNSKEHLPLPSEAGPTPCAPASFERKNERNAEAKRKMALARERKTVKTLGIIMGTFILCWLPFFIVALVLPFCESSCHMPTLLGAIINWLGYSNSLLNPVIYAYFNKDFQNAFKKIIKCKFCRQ

[2] = molecular target: h5-HT2B (Homo sapiens, UniProt P41595); experiment: Radioligand binding assay, h5-HT2B
Chain of h5-HT2B (P41595 whole entry): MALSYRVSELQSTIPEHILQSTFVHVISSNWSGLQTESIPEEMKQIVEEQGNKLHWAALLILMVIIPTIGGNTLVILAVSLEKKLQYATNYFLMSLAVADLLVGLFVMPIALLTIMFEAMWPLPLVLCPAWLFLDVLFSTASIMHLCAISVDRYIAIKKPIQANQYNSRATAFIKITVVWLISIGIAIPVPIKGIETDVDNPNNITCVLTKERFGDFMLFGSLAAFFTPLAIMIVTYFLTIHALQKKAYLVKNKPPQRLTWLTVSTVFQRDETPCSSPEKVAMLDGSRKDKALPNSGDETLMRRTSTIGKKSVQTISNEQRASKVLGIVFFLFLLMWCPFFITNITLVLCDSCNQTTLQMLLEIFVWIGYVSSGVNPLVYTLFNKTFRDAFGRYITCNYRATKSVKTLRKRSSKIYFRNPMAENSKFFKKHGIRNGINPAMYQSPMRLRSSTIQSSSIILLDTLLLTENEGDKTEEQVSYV

[3] = molecular target: h5-HT2C (Homo sapiens, UniProt P28335); experiment: Radioligand binding assay, h5-HT2C
Chain of h5-HT2C (P28335 33-458): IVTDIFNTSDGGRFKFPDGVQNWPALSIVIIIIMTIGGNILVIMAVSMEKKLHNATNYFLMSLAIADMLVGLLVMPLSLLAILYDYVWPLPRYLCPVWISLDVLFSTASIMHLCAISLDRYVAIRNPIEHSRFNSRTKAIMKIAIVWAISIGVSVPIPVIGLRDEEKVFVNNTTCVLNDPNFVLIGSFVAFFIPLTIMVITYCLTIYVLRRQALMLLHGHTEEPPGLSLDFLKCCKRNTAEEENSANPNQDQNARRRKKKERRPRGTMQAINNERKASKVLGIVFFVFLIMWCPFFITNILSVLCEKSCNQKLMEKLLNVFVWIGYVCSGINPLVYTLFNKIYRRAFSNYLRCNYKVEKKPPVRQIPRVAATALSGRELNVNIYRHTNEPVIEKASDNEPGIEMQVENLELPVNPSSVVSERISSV

[4] = molecular target: T2, h5-HT3 (Homo sapiens, UniProt P46098); experiment: Radioligand binding assay, h5-HT3; conditions: read-out: Affinity [ki (nM)]
T2 sequence (P46098 24-478): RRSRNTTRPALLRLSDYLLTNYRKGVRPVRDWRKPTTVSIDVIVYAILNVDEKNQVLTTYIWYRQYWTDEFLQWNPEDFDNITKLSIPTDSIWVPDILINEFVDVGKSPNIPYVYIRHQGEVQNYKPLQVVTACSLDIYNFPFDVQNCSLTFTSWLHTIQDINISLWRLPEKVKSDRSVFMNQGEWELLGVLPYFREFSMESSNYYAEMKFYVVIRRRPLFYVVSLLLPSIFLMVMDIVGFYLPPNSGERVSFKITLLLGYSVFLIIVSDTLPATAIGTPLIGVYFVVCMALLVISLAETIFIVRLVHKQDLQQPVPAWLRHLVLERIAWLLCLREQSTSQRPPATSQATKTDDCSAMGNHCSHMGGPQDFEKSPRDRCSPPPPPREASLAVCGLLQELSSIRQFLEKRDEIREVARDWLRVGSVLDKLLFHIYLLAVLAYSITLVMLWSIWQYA
Description: (§1) Binding affinities were determined in radioligand binding assays according to their standard assays protocols. In case 1, the assays included in the LeadProfilingScreen package plus 5-HT1 non-selective, 5-HT2 non-selective, 5-HT2B, 5-HT2C, 5-HT4, 5-HT5A, 5-HT6 and 5-HT7 were performed. In case 2, assays included in the High-throughput profile plus 5-HT1D, 5-HT2B, 5-HT4e were performed. For AS-19 further assays were carried out to complete its selectivity profile for serotonin receptors, including 5-HT1B, 5-HT1D, 5-HT2A and 5-HT4a.

[5] = molecular target: gp5-HT4 (Cavia porcellus, UniProt O70528); experiment: Radioligand binding assay, gp5-HT4; design: species or system guinea pig; conditions: read-out: Affinity [ki (nM)]
Chain of gp5-HT4 (O70528 whole entry): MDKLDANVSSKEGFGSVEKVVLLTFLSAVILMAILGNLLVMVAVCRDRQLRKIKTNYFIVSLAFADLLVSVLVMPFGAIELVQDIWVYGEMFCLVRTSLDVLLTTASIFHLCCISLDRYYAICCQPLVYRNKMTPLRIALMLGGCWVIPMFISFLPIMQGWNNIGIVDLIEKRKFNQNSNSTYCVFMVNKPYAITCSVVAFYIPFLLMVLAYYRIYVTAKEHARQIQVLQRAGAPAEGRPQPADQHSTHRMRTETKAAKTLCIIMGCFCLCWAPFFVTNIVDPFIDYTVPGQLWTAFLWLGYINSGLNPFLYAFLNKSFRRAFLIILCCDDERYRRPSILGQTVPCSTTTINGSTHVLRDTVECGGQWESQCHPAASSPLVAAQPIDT
Description: as §1

[6] = molecular target: h5-HT5A (Homo sapiens, UniProt P47898); experiment: Radioligand binding assay, h5-HT5A; conditions: read-out: Affinity [ki (nM)]
Chain of h5-HT5A (P47898 whole entry): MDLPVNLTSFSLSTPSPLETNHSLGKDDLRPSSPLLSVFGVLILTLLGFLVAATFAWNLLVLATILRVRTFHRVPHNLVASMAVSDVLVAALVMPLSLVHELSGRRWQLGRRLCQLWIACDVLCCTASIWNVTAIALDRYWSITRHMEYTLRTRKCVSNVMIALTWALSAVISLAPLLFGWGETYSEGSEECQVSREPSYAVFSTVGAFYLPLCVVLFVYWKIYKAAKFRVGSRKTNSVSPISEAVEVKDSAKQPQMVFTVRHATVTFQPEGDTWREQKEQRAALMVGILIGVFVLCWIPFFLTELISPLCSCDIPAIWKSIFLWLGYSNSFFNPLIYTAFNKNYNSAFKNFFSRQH

[7] = molecular target: h5-HT6 (Homo sapiens, UniProt P50406); experiment: Radioligand binding assay, h5-HT6
Chain of h5-HT6 (P50406 whole entry): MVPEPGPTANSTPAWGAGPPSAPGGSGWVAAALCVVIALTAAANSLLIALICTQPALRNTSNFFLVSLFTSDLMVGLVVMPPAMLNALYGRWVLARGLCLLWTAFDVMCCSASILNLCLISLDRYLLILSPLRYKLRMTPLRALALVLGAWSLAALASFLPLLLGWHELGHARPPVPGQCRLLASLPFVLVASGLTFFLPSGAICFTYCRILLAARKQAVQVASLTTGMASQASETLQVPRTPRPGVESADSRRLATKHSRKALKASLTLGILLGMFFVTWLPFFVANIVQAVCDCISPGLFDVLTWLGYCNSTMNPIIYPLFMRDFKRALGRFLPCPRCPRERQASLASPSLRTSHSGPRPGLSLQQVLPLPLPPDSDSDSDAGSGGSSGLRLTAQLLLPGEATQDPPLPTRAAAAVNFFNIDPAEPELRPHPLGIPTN

[8] = molecular target: h5-HT7 (Homo sapiens, UniProt P34969); experiment: biochemical; conditions: Affinity [ki (nM)]
Chain of h5-HT7 (P34969 whole entry): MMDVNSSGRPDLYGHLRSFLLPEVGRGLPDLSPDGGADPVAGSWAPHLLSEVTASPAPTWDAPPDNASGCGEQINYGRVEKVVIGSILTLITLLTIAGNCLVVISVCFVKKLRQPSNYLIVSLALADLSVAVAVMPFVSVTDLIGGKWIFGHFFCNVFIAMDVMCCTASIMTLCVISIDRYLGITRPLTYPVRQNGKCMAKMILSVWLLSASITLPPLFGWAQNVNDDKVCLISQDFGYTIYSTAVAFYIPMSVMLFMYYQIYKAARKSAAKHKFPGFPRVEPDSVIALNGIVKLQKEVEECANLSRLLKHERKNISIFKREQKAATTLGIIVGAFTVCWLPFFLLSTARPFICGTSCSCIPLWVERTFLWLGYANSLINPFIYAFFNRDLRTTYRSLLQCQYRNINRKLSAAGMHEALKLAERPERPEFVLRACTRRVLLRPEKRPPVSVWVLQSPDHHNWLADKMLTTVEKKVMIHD

[9] = molecular target: T3, 5-HT7 receptors (Homo sapiens, UniProt P34969); experiment: cAMP measurement (HTRF) in HEK-293F cells stably expressing human 5-HT7 receptors; format: cell-based; design: expressed in transfected cells; host or cells: HEK-293F; conditions: for EC50: HEK-293F cells, human 5-HT7, mean ± SEM
T3 sequence (P34969 whole entry): as above

[10] = system: capsaicin-induced mechanical allodynia; experiment: Capsaicin test, antiallodynic protocol (1 μg capsaicin, 1 g von Frey filament); conditions: for dose at which the antiallodynic effect reached the maximum: s.c.
[11] = molecular target: h5-HT2A (Homo sapiens, UniProt P28223); experiment: Radioligand binding assay, h5-HT2A; conditions: read-out: Affinity [ki (nM)]
Chain of h5-HT2A (P28223 whole entry): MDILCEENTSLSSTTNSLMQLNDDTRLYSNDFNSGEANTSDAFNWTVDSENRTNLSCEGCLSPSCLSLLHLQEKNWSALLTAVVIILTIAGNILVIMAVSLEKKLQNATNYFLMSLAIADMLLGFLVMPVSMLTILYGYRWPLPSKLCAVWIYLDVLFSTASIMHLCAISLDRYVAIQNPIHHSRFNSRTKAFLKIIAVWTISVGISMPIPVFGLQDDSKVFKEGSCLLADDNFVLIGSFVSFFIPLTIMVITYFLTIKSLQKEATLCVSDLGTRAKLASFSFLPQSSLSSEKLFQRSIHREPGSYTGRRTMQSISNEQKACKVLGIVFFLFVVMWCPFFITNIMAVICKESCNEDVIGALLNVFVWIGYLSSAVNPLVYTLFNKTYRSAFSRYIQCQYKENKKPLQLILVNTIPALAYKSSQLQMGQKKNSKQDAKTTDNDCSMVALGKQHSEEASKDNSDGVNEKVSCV

[12] = system: mechanical allodynia induced by partial sciatic nerve ligation; experiment: Partial sciatic nerve ligation, von Frey test (mechanical allodynia); format: in vivo, mice; conditions: for effect on mechanical allodynia (von Frey pressure threshold), nerve-injured mice: days 11-13 post-injury
Excerpt: Mechanical allodynia was quantified by measuring the tactile threshold for hind paw withdrawal following von Frey filament stimulation. […] The filament exerted an increasing upward pressure on the plantar surface. The pressure increased linearly with time (0.1 g/s; from 0 to 5 g in 50 s) until the mouse withdrew its paw. […] A cut-off threshold of 5 g (50 s) was imposed.
The filament of 0.4 g was first used. […] This up-down procedure was stopped four measures after the first change in animal responding and the threshold of response was calculated. Clear paw withdrawal, shaking was considered as a nociceptive-like response.

[13] = system: thermal hyperalgesia induced by partial sciatic nerve ligation; experiment: Partial sciatic nerve ligation, plantar test (thermal hyperalgesia)
[14] = system: sciatic nerve-ligatured rats; experiment: Chronic constriction injury of the sciatic nerve (CCI-SN), Randall-Sellito test
[15] = system: infraorbital nerve-ligatured rats; experiment: Chronic constriction injury of the infraorbital nerve (CCI-ION), von Frey filaments
[16] = molecular target: T4, h5-HT1F (Homo sapiens, UniProt P30939); experiment: Radioligand binding assay, h5-HT1F; conditions: read-out: Affinity [ki (nM)]
T4 sequence (P30939 1-366): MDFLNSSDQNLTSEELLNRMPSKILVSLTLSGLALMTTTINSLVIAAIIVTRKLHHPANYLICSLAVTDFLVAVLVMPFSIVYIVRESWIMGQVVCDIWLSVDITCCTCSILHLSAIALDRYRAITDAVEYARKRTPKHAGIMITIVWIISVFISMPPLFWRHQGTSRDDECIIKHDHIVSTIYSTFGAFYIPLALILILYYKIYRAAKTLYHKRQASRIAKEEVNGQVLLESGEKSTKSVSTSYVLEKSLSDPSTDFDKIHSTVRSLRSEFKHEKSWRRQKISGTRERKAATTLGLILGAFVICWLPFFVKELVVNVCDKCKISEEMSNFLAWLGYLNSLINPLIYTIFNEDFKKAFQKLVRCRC

[17] = system: capsaicin-induced mechanical allodynia; experiment: Capsaicin test, proallodynic protocol (4 ng capsaicin, 0.25 g von Frey filament); format: in vivo, mice; conditions: 10 mg/Kg s.c., 0.25 g pressure
Description: Alternatively, in some experiments, only 4 ng (instead of 1 μg) of capsaicin were injected into the paw and the pressure exerted by the filament was reduced to 0.25 g (instead of 1 g). […] This approach was used to test the possibility that treatments could exert a proallodynic effect. The FIG. 1 summarizes the two different experimental approaches carried out in this study.

[18] = molecular target: T3, 5-HT7 receptors; conditions: Mahe et al., 2004; Romero et al., 2006; cited from earlier work
[19] = system: 5-HT1A; conditions: Foster et al., 1995; cited from earlier work

SMILES: Cc1nn(C)c(C)c1-c1cccc2c1CC[C@H](N(C)C)C2 [AS-19]
Ki [1]: 89.7 nM
Ki [2]: > 1000 nM
Ki [3]: > 1000 nM
Ki [4]: > 1000 nM
Ki [5]: > 1000 nM
Ki [6]: 98.5 nM
Ki [7]: > 1000 nM
Ki [8]: 0.605 nM and 0.6 nM
EC50 ([9]; EC50 (nM), cAMP concentration-response curves): 8.87 ± 0.57 nM
Emax ([9]; HEK293F): 77 ± 2.3%
EC50 ([9]; pEC50, cAMP concentration-response curves): 8.71 nM
dose at which the antiallodynic effect reached the maximum ([10]; 1 g filament): 10 mg/kg

SMILES: Cc1ccc(CNCC2(F)CCN(C(=O)c3ccc(F)c(Cl)c3)CC2)nc1 [F-13640, (3-Chloro-4-fluoro-phenyl)-[4-fluoro-4-{[(5-methyl-pyridin-2-ylmethyl)-amino]-methyl}piperidin-1-yl]methanone]
effect on capsaicin-induced mechanical allodynia ([10]; 1 mg/kg s.c., 1 g filament): inhibited

SMILES: CN(C)CCSc1cccc(-c2ccccc2)n1 [MSD-5a, 2-(6-phenylpyridin-2-ylthio)-N,N-dimethylethanamine]
Ki ([1]; h5-HT1A, read-out: Affinity [ki (nM)]): 16 nM
Ki [11]: 320 nM
effect on mechanical allodynia (von Frey pressure threshold), nerve-injured mice ([12]; 0.3 mg/kg s.c.): ineffective
effect on mechanical allodynia (von Frey pressure threshold), nerve-injured mice ([12]; 1 and 3 mg/kg s.c.): significantly inhibited mechanical allodynia; also recorded: restored thresholds of the nociceptive withdrawal response of nerve-injured paws to baseline pre-injury values
persistence of the antiallodynic effect after treatment ([12]; post-treatment thresholds, day 14 post-injury): disappeared the following day after last administration of MSD-5a
effect on nociceptive threshold in sham-operated mice ([12]; sham-operated, s.c., over the doses tested): did not produce any effects
effect on thermal hyperalgesia (paw withdrawal latency), nerve-injured mice ([13]; 0.3 mg/kg s.c.): did not exert analgesic (antihyperalgesic) effect
effect on thermal hyperalgesia (paw withdrawal latency), nerve-injured mice ([13]; 1 and 3 mg/kg s.c., days 11-13 post-injury): increased the withdrawal latency of nerve-injured paws to levels indistinguishable from control baseline pre-injury values
effect on thermal withdrawal latency in sham-operated mice ([13]; sham-operated, s.c.): had no effects
effect on capsaicin-induced mechanical allodynia (paw withdrawal latency vs vehicle) ([10]; 3, 10 and 30 mg/kg s.c., 1 g filament): increased the latencies of nociceptive paw withdrawal responses
effect on capsaicin-induced mechanical allodynia (paw withdrawal latency) ([10]; mice, 1 g filament, s.c. 30 min before capsaicin, over the doses tested): restored the nociceptive response of capsaicin-sensitized mice to baseline values
dose at which the antiallodynic effect reached the maximum ([10]; 1 g filament): 10 mg/kg
effect on mechanical nociceptive thresholds in sciatic nerve-ligatured rats ([14]; s.c., paw withdrawal and vocalization thresholds): clear-cut antihyperalgesic effects
effect on response threshold (mechanical allodynia) in infraorbital nerve-ligatured rats ([15]; s.c., von Frey filaments, ipsilateral vibrissal territory): clearly increased the threshold

Ki [16]: > 1000 nM
SMILES: CC1CCN(CC[C@H]2CCCN2S(=O)(=O)c2cccc(O)c2)CC1 [SB-269970, (R)-3-(2-(2-(4-Methylpiperidin-1-yl)ethyl)pyrrolidine-1-sulfonyl)phenol]
proallodynic effect (paw withdrawal latency) [17]: allodynia was evidenced
functionality at 5-HT7 receptor as described [18]: inverse agonist
effect on capsaicin-induced mechanical allodynia ([10]; 10 mg/kg s.c., alone, 1 g filament): did not modify paw withdrawal latencies
effect on the antiallodynic effect of AS-19 when co-administered ([10]; SB-269970 10 mg/kg + AS-19 5 mg/kg s.c.): blocked the antiallodynic effect of the agonist
effect on AS 19-induced anti-hyperalgesia/anti-allodynia ([14]; antagonist i.p., AS-19 s.c., sciatic nerve-ligated rats): Blockade
effect on 5a-MSD-induced anti-hyperalgesia/anti-allodynia ([15]; antagonist i.p., 5a-MSD s.c., infraorbital nerve-ligated rats): Blockade
effect on AS 19-induced anti-hyperalgesia/anti-allodynia ([15]; antagonist i.p., AS-19 s.c., infraorbital nerve-ligated rats): Blockade

SMILES: COc1ccccc1N1CCN(CCN(C(=O)C2CCCCC2)c2ccccn2)CC1 [WAY-100635, N-(2-(4-(2-methoxyphenyl)-1-piperazinyl)ethyl)-N-(2-pyridinyl)cyclohexane carboxamide]
ID50 for block of 5-HT1A-mediated effects induced by 8-OH-DPAT [19]: 0.01 mg/kg
effect on capsaicin-induced mechanical allodynia ([10]; 0.1 and 0.3 mg/kg s.c., 1 g filament): unaffected
effect on capsaicin-induced mechanical allodynia ([10]; 0.5 and 1 mg/kg s.c., 1 g filament): significant increase in paw withdrawal latency
effect on the antiallodynic effect of AS-19 when co-administered ([10]; AS-19 at 5 and 10 mg/kg, WAY-100635 0.3 mg/kg or SB-258719 5 mg/kg s.c.): unaffected
effect on the antiallodynic effect of F-13640 when co-administered ([10]; WAY-100635 0.3 mg/kg + F-13640 1 mg/kg s.c.): blocked this antiallodynic effect
